Measured values as given in patent US9409908B2 (priority 2012, dated 2016).
Where a name gives a salt, the structure may show the parent alone. Read-outs that look alike come from different tables or passages of the source.

What was measured:
[1] = target: purified human plasma kallikrein (Homo sapiens (Human), UniProt P03952); assay: biochemical; format: biochemical
[2] = target: purified human Factor XIa (Homo sapiens (Human), UniProt P03951); assay: biochemical; format: biochemical
purified human Factor XIa, sequence (P03951 whole entry, looked up): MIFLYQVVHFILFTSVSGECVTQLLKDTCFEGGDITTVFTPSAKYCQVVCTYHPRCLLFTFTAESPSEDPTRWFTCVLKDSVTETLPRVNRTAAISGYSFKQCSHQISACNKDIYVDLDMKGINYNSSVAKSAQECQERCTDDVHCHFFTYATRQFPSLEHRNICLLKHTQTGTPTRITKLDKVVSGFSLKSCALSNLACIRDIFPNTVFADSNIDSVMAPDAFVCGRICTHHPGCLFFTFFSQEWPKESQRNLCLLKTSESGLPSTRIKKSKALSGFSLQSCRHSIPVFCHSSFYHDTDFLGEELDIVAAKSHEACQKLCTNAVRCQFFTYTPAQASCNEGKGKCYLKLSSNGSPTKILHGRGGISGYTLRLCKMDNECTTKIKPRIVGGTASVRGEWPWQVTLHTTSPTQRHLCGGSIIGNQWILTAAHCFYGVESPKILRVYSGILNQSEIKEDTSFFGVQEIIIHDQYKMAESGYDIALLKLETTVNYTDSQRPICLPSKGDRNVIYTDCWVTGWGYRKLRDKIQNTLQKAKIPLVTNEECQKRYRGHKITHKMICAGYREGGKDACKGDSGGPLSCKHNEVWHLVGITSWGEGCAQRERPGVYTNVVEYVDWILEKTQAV
purified human Factor XIa, sequence (P03951 whole entry partner, looked up): as the sequence (P03951 whole entry, looked up) above

purified human plasma kallikrein, sequence (P03952 whole entry, looked up): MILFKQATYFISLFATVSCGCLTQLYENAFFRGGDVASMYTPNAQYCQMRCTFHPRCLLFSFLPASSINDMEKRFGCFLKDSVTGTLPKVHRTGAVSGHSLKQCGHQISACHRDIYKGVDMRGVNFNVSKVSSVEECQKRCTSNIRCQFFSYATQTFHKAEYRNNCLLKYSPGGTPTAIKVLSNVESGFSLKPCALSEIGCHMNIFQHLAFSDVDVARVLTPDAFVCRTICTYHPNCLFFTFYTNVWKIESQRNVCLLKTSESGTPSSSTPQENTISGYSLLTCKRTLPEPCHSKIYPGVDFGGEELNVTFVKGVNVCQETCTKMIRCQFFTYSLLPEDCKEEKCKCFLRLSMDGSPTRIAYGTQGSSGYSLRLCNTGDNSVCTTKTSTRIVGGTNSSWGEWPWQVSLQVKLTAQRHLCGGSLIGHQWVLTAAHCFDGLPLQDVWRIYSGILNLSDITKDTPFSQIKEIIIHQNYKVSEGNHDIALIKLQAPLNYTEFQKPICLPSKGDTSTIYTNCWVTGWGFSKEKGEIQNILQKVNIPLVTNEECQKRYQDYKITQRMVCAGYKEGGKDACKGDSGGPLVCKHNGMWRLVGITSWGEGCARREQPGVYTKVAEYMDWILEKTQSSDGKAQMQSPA
purified human plasma kallikrein, sequence (P03952 whole entry partner, looked up): as the sequence (P03952 whole entry, looked up) above

For `C[C@@H]1CCC[C@H](N2CCC(c3c(F)ccc(C#N)c3F)=CC2=O)c2cc(ccn2)-c2cc(C#N)ccc2NC1=O` [Example 139, (10R,14S)-14-[4-(3-cyano-2,6-difluorophenyl)-6-oxo-1,2,3,6-tetrahydropyridin-1-yl]-10-methyl-9-oxo-8,16-diazatricyclo[13.3.1.0^2,7]nonadeca-1(19),2(7),3,5,15,17-hexaene-4-carbonitrile], the Ki ([1]; read-out: Plasma Kallikrein Ki) was 6050 nM and the Ki ([2]; read-out: Factor XIa Ki) was > 408 nM.

Work on `COC(=O)Nc1ccc2c(c1)NC(=O)[C@H](C)CCC[C@H](N1CCC(c3cncc(Cl)c3)=CC1=O)c1cc-2ccn1` [Example 99, Methyl N-[(10R,14S)-14-[4-(5-chloropyridin-3-yl)-6-oxo-1,2,3,6-tetrahydropyridin-1-yl]-10-methyl-9-oxo-8,16-diazatricyclo[13.3.1.0^2,7]nonadeca-1(19),2,4,6,15,17-hexaen-5-yl]carbamate, his TFA salt] yielded a Ki ([1]; read-out: Plasma Kallikrein Ki) of 2400 nM and a Ki ([2]; read-out: Factor XIa Ki) of 126 nM.

For `COC(=O)Nc1ccc2c(c1)NC(=O)[C@H](C)CCC[C@H](N1CCC(c3c(C(F)(F)F)ccc(Cl)c3F)=CC1=O)c1cc-2ccn1` [Example 25, Methyl N-[(10R,14S)-14-{4-[3-chloro-2-fluoro-6-(trifluoromethyl)phenyl]-6-oxo-1,2,3,6-tetrahydropyridin-1-yl}-10-methyl-9-oxo-8,16-diazatricyclo[13.3.1.0^2,7]nonadeca-1(19),2,4,6,15,17-hexaen-5-yl]carbamate, TFA salt], the Ki ([1]; read-out: Plasma Kallikrein Ki) was 12 nM and the Ki ([2]; read-out: Factor XIa Ki) was 0.1 nM.

`COC(=O)Nc1ccc2c(c1)NC(=O)C(C)(O)CCC[C@H](N1CCC(c3c(F)ccc(Cl)c3F)=CC1=O)c1cc-2ccn1` (single isomer, unassigned) [Example 124, TFA salt] gave a Ki ([1]; Plasma Kallikrein Ki) of 483 nM and a Ki [2] of 346 nM.

For `C[C@@H]1CCC[C@H](N2CCC(c3c(F)ccc(Cl)c3F)=CC2=O)c2cc(ccn2)-c2c(F)cc(F)cc2NC1=O` [Example 201, (10R,14S)-14-[4-(3-chloro-2,6-difluorophenyl)-6-oxo-1,2,3,6-tetrahydropyridin-1-yl]-3,5-difluoro-10-methyl-8,16-diazatricyclo[13.3.1.0^2,7]nonadeca-1(19),2(7),3,5,15,17-hexaen-9-one, TFA salt], the Ki ([1]; read-out: Plasma Kallikrein Ki) was 105 nM and the Ki ([2]; read-out: Factor XIa Ki) was 50 nM.

Work on `COC(=O)Nc1ccc2c(c1)NC(=O)[C@H](C)CCC[C@H](N1CCC(c3cccc(C)c3C)=CC1=O)c1cc-2ccn1` [Example 114, Methyl-N-[(10R,14S)-14-[4-(2,3-dimethylphenyl)-6-oxo-1,2,3,6-tetrahydropyridin-1-yl]-10-methyl-9-oxo-8,16-diazatricyclo[13.3.1.0^2,7]nonadeca-1(18),2,4,6,15(19),16-hexaen-5-yl]carbamate] yielded a Ki ([1]; read-out: Plasma Kallikrein Ki) of 143 nM and a Ki ([2]; read-out: Factor XIa Ki) of 108 nM.

`C[C@@H]1CCC[C@H](N2CCC(c3c(F)ccc(Cl)c3F)=CC2=O)c2cc(ccn2)-c2ccc(Nc3ncccn3)cc2NC1=O` [Example 16, (10R,14S)-14-[4-(3-Chloro-2,6-difluorophenyl)-6-oxo-1,2,3,6-tetrahydropyridin-1-yl]-10-methyl-5-[(pyrimidin-2-yl)amino]-8,16-diazatricyclo[13.3.1.0^2,7]nonadeca-1(19),2(7),3,5,15,17-hexaen-9-one, 2 TFA salt] was tested, and the Ki ([1]; read-out: Plasma Kallikrein Ki) was 1 nM and the Ki ([2]; read-out: Factor XIa Ki) was 1.15 nM.

In the case of `COC(=O)Nc1ccc2c(c1)NC(=O)[C@H](C)CCC[C@H](N1CCC(c3c(C(C)=O)ccc(Cl)c3F)=CC1=O)c1cccc-2c1` [Example 171, Methyl N-[(10R,14S)-14-[4-(6-acetyl-3-chloro-2-fluorophenyl)-6-oxo-1,2,3,6-tetrahydropyridin-1-yl]-10-methyl-9-oxo-8-azatricyclo[13.3.1.0^2,7]nonadeca-1(18),2,4,6,15(19),16-hexaen-5-yl]carbamate], the Ki ([1]; read-out: Plasma Kallikrein Ki) is reported as 8.87 nM and the Ki ([2]; read-out: Factor XIa Ki) is reported as 0.17 nM.

`Cc1ncn(-c2ccc(Cl)cc2C2=CC(=O)N([C@H]3CCC[C@@H](C)C(=O)Nc4ccccc4-c4ccnc3c4)CC2)n1` [Example 74, (10R,14S)-14-{4-[5-Chloro-2-(3-methyl-1H-1,2,4-triazol-1-yl)phenyl]-6-oxo-1,2,3,6-tetrahydropyridin-1-yl}-10-methyl-8,16-diazatricyclo[13.3.1.0^2,7]nonadeca-1(19),2(7),3,5,15,17-hexaen-9-one, TFA salt] gave a Ki ([1]; read-out: Plasma Kallikrein Ki) of 238 nM and a Ki ([2]; read-out: Factor XIa Ki) of 40.1 nM.

Work on `C[C@@H]1CCC[C@H](N2CCC(c3c(C#N)ccc(C#N)c3F)=CC2=O)c2cc(ccn2)-c2cc(F)c(F)cc2NC1=O` [Example 210, 2-{1-[(10R,14S)-4,5-difluoro-10-methyl-9-oxo-8,16-diazatricyclo[13.3.1.0^2,7]nonadeca-1(19),2(7),3,5,15,17-hexaen-14-yl]-6-oxo-1,2,3,6-tetrahydropyridin-4-yl}-3-fluorobenzene-1,4-dicarbonitrile, TFA salt] yielded a Ki ([1]; read-out: Plasma Kallikrein Ki) of 1200 nM and a Ki ([2]; read-out: Factor XIa Ki) of 477 nM.

Work on `COC(=O)Nc1ccc2c(c1)NC(=O)[C@H](C)CCC[C@H](N1CCC(c3nccc(Cl)c3F)=CC1=O)c1cc-2ccn1` [Example 10, Methyl N-[(10R,14S)-14-[4-(4-chloro-3-fluoropyridin-2-yl)-6-oxo-1,2,3,6-tetrahydropyridin-1-yl]-10-methyl-9-oxo-8,16-diazatricyclo[13.3.1.0^2,7]nonadeca-1(18),2,4,6,15(19),16-hexaen-5-yl]carbamate, TFA salt] yielded a Ki ([1]; read-out: Plasma Kallikrein Ki) of 1 nM and a Ki ([2]; read-out: Factor XIa Ki) of 0.92 nM.

With `CC1CCC[C@H](N2CCC(c3c(F)ccc(Cl)c3F)=CC2=O)c2cc(ccn2)-c2ccc(C(N)=O)cc2NC1=O` (stereo partly drawn) [Example 107, (14S)-14-[4-(3-Chloro-2,6-difluorophenyl)-6-oxo-1,2,3,6-tetrahydropyridin-1-yl]-10-methyl-9-oxo-8,16-diazatricyclo[13.3.1.0^2,7]nonadeca-1(18),2,4,6,15(19),16-hexaene-5-carboxamide, TFA salt] the Ki ([1]; read-out: Plasma Kallikrein Ki) was 88 nM and the Ki ([2]; read-out: Factor XIa Ki) was 17.4 nM.

With `C[C@@H]1CCC[C@H](N2CCC(c3c(-c4ccccc4)ccc(Cl)c3F)=CC2=O)c2cc(ccn2)-c2ccccc2NC1=O` [Example 57, (10R,14S)-14-[4-(3-Chloro-2-fluoro-6-phenylphenyl)-6-oxo-1,2,3,6-tetrahydropyridin-1-yl]-10-methyl-8,16-diazatricyclo[13.3.1.0^2,7]nonadeca-1(19),2,4,6,15,17-hexaen-9-one, TFA salt] the Ki ([1]; read-out: Plasma Kallikrein Ki) was 351 nM and the Ki ([2]; read-out: Factor XIa Ki) was 35.6 nM.

`C[C@@H]1CCC[C@H](N2CCC(c3c(C#N)ccc(Cl)c3F)=CC2=O)c2cc(ccn2)-c2ccccc2NC1=O` [Example 49, 4-Chloro-3-fluoro-2-{1-[(10R,14S)-10-methyl-9-oxo-8,16-diazatricyclo[13.3.1.0^2,7]nonadeca-1(19),2,4,6,15,17-hexaen-14-yl]-6-oxo-1,2,3,6-tetrahydropyridin-4-yl}benzonitrile, TFA salt] showed a Ki ([1]; read-out: Plasma Kallikrein Ki) of 3 nM and a Ki ([2]; read-out: Factor XIa Ki) of 1.06 nM.

`C[C@@H]1CCC[C@H](N2CCC(c3c(F)ccc(Cl)c3F)=CC2=O)c2cc(ccn2)-c2cc3c(cc2NC1=O)NC(=O)C3` [Example 84, (13R,17S)-17-[4-(3-Chloro-2,6-difluorophenyl)-6-oxo-1,2,3,6-tetrahydropyridin-1-yl]-13-methyl-7,11,19-triazatetracyclo[16.3.1.0^2,10.0^4,8]docosa-1(22),2,4(8),9,18,20-hexaene-6,12-dione, TFA salt] showed a Ki ([1]; read-out: Plasma Kallikrein Ki) of 16 nM and a Ki ([2]; read-out: Factor XIa Ki) of 2.68 nM.

`C[C@@H]1CCC[C@H](N2CCC(c3c(Br)ccc(Cl)c3F)=CC2=O)c2cccc(c2)-c2cc(C(=O)O)ccc2NC1=O` [Example 167, (10R,14S)-14-[4-(6-bromo-3-chloro-2-fluorophenyl)-6-oxo-1,2,3,6-tetrahydropyridin-1-yl]-10-methyl-9-oxo-8-azatricyclo[13.3.1.0^2,7]nonadeca-1(19),2,4,6,15,17-hexaene-4-carboxylic acid] was tested, and the Ki ([1]; read-out: Plasma Kallikrein Ki) was 20.1 nM and the Ki ([2]; read-out: Factor XIa Ki) was 0.81 nM.

With `C[C@@H]1CCC[C@H](N2CCC(c3c(F)ccc(Cl)c3F)=CC2=O)c2cc(ccn2)-c2cc(Br)ccc2NC1=O` [Example 137, (10R,14S)-4-bromo-14-[4-(3-chloro-2,6-difluorophenyl)-6-oxo-1,2,3,6-tetrahydropyridin-1-yl]-10-methyl-8,16-diazatricyclo[13.3.1.0^2,7]nonadeca-1(19),2(7),3,5,15,17-hexaen-9-one] the Ki ([1]; read-out: Plasma Kallikrein Ki) was 91.3 nM and the Ki ([2]; read-out: Factor XIa Ki) was 69.6 nM.

With `COC(=O)c1ccc2c(c1)-c1cccc(c1)[C@@H](N1CCC(c3c(F)ccc(Cl)c3F)=CC1=O)CCC[C@@H](C)C(=O)N2` [Example 164, Methyl (10R,14S)-14-[4-(3-chloro-2,6-difluorophenyl)-6-oxo-1,2,3,6-tetrahydropyridin-1-yl]-10-methyl-9-oxo-8-azatricyclo[13.3.1.0^2,7]nonadeca-1(19),2,4,6,15,17-hexaene-4-carboxylate] the Ki ([1]; read-out: Plasma Kallikrein Ki) was 442 nM and the Ki ([2]; read-out: Factor XIa Ki) was > 398 nM.

`C[C@@H]1CCC[C@H](N2CCC(c3c(C#N)ccc(Cl)c3F)=CC2=O)c2cc(ccn2)-c2c(F)cc(F)cc2NC1=O` [Example 207, 4-chloro-2-{1-[(10R,14S)-3,5-difluoro-10-methyl-9-oxo-8,16-diazatricyclo[13.3.1.0^2,7]nonadeca-1(19),2(7),3,5,15,17-hexaen-14-yl]-6-oxo-1,2,3,6-tetrahydropyridin-4-yl}-3-fluorobenzonitrile, TFA salt] showed a Ki ([1]; read-out: Plasma Kallikrein Ki) of 5.8 nM and a Ki ([2]; read-out: Factor XIa Ki) of 2.75 nM.

With `COC(=O)c1ccc2c(c1)-c1cccc(c1)[C@@H](N1CCC(c3c(Br)ccc(Cl)c3F)=CC1=O)CCC[C@@H](C)C(=O)N2` [Example 163, Methyl (10R,14S)-14-[4-(6-bromo-3-chloro-2-fluorophenyl)-6-oxo-1,2,3,6-tetrahydropyridin-1-yl]-10-methyl-9-oxo-8-azatricyclo[13.3.1.0^2,7]nonadeca-1(19),2,4,6,15,17-hexaene-4-carboxylate] the Ki ([1]; read-out: Plasma Kallikrein Ki) was 224 nM and the Ki ([2]; read-out: Factor XIa Ki) was > 398 nM.

`COC(=O)Nc1ccc2c(c1)NC(=O)[C@H](C)CCC[C@H](N1CCC(c3c(OC(F)F)ccc(Cl)c3F)=CC1=O)c1ccnc-2c1` [Example 31, Methyl N-[(10R,14S)-14-{4-[3-chloro-6-(difluoromethoxy)-2-fluorophenyl]-6-oxo-1,2,3,6-tetrahydropyridin-1-yl}-10-methyl-9-oxo-8,18-diazatricyclo[13.3.1.0^2,7]nonadeca-1(19),2,4,6,15,17-hexaen-5-yl]carbamate, TFA salt] was tested, and the Ki ([1]; read-out: Plasma Kallikrein Ki) was 3 nM and the Ki ([2]; read-out: Factor XIa Ki) was 0.04 nM.
